The record followed here is patent US7842707B2, “Peptidase inhibitors” (Nuada, LLC, priority 2004, dated 2010).

The target of this test is T1, Porcine dipeptidyl peptidase IV (Sus scrofa, UniProt P22411).
T1 construct: purchased Sigma D-7052
The test can be described thus: Inhibition of dipeptidyl peptidase IV (DPP-IV) activity, Ala-Pro-AFC fluorimetric assay. As to conditions: for IC50: 8 point concentration curves in duplicate, Ala-Pro-AFC 20 μM, Tris-HCl pH 8.0, 37° C.; for inhibition at 0.1 µM: test compound at 100 nM, read-out: Percent Inhibition of DPP-IV at 100 nM; for inhibition at 0.1 µM / inhibition at 1 µM: in duplicate; for inhibition at 1 µM: test compound at 1 uM, read-out: Percent Inhibition of DPP-IV at 1 uM. The test is classed as biochemical. The protocol: Porcine dipeptidyl peptidase IV (Sigma, D-7052) is used. Test compound and/or vehicle is pre-incubated with enzyme (70 μU ? /ml) in Tris-HCl pH 8.0 for 15 minutes at 37° C. Ala-Pro-AFC (20 μM) is then added for a further 30 minutes incubation period. The concentration of proteolytic product, AFC, is then read spectrofluorimetrically. 8 point concentration curves in duplicate are used to calculate IC50 values, or percent inhibition is measured in duplicate at two dose levels.

T1 sequence (P22411 whole entry): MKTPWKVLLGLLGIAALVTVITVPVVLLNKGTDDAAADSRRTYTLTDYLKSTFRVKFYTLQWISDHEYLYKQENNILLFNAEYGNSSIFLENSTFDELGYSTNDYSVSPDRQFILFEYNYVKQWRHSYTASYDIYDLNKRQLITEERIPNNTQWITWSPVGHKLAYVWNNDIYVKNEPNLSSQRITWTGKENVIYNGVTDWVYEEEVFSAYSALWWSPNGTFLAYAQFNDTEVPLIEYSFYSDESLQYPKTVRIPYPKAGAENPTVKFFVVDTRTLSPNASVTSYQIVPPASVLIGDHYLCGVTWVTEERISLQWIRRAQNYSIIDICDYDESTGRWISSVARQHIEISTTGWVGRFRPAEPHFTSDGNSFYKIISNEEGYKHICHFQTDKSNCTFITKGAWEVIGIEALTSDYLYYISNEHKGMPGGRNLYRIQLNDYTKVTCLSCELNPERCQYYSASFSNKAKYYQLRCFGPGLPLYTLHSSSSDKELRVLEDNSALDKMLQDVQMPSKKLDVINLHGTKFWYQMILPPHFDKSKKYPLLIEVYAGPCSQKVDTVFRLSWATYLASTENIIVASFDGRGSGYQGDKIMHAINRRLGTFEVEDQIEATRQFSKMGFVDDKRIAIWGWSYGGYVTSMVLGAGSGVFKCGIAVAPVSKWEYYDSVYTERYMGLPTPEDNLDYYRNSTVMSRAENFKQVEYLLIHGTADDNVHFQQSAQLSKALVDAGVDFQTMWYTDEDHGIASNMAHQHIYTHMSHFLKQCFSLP

As a reminder, the IC50 is the midpoint of a concentration-inhibition curve. A lower IC50 goes with inhibition by little substance. For the molecule `CS(=O)(=O)NC12CC3CC(CC(NCC(=O)N4CCC[C@H]4C#N)(C3)C1)C2` [Example 1, (S)-1-[(3-methanesulfonamido-1-adamantyl)amino]acetyl-2-cyano-pyrrolidine], the IC50 turned out to be 59 nM.
The term inhibition denotes how much of the control response was suppressed. As for `CCS(=O)(=O)NC12CC3CC(CC(NCC(=O)N4CCC[C@H]4C#N)(C3)C1)C2` [Example 2, (S)-1-[(3-ethanesulfonamido-1-adamantyl)amino]acetyl-2-cyano-pyrrolidine], the inhibition at 0.1 µM turned out to be 60% and the inhibition at 1 µM is 92%.
On the same counts, the results for `N#C[C@@H]1CCCN1C(=O)CNC12CC3CC(C1)CC(NS(=O)(=O)CC(F)(F)F)(C3)C2` [Example 3, (S)-1-[(3-(2,2,2-trifluoro)-ethanesulfonamido-1-adamantyl)amino]acetyl-2-cyano-pyrrolidine] are 68% and 94%.
Molecule `N#C[C@@H]1CCCN1C(=O)CNC12CC3CC(C1)CC(NS(=O)(=O)c1ccc(F)cc1)(C3)C2` [Example 4, (S)-1-[(3-(4-fluorophenyl)sulfonamido-1-adamantyl)amino]acetyl-2-cyano-pyrrolidine] showed a 50% inhibitory concentration (IC50) of 46 nM.
For `N#Cc1ccc(NC23CC4CC(CC(NCC(=O)N5CCC[C@H]5C#N)(C4)C2)C3)nc1` [Example 5, 6-(3-(2-((S)-2-cyanopyrrolidin-1-yl)-2-oxoethylamino)-adamantylamino)nicotinonitrile], the inhibition at 0.1 µM is 96% and the inhibition at 1 µM is 99%.
The molecule `CN(C)S(=O)(=O)NC12CC3CC(CC(NCC(=O)N4CCC[C@H]4C#N)(C3)C1)C2` [Example 6, N′-(3-(2-((S)-2-cyanopyrrolidin-1-yl)-2-oxoethylamino)-adamantyl)-N,N-dimethyl-sulfamide] gave a 50% inhibitory concentration (IC50) of 61 nM.
Regarding `N#C[C@@H]1CCCN1C(=O)CNC12CC3CC(C1)CC(NC(=O)NS(=O)(=O)c1ccc(F)cc1)(C3)C2` [Example 7, 1-(3-(2-((S)-2-cyanopyrrolidin-1-yl)-2-oxoethylamino)-adamantyl)-3-(4-fluorophenylsulfonyl)urea], 70 nM corresponded to half-maximal inhibition (IC50).
